Results on 23 molecules are retold here after ChEMBL document CHEMBL4390709, “Design, synthesis and biological evaluation of benzimidazole derivatives as novel human Pin1 inhibitors” (Bioorg Med Chem Lett, 2019).

For test [1], the target named is Peptidyl-prolyl cis-trans isomerase NIMA-interacting 1 (Homo sapiens, UniProt Q13526). Briefly: Inhibition of recombinant human Pin1 (Met1 to Glu163 residues) expressed in Escherichia coli using Suc-Ala-Glu-cis-Pro-Phe-4-nitroanilide as substrate preincubated for 30 mins followed by substrate addition and measured for 90 secs by protease-coupled assay.
Test [2] relates to PC-3. Briefly: Cell cycle arrest in human PC3 cells assessed as accumulation at subG1-phase at 5 uM measured after 24 hrs by propidium iodide staining based flow cytometry (reference value: 0.65%). Format: functional.
Test [3] deals with PC-3. Briefly: Cell cycle arrest in human PC3 cells assessed as accumulation at G2/M-phase at 2.5 uM measured after 24 hrs by propidium iodide staining based flow cytometry (reference value: 28.31%). Format: functional.
Test [4] has as its system PC-3. Briefly: Cell cycle arrest in human PC3 cells assessed as accumulation at G0/G1-phase at 10 uM measured after 24 hrs by propidium iodide staining based flow cytometry (reference value: 54.26%). Format: functional.
Test [5] concerns PC-3. Briefly: Cell cycle arrest in human PC3 cells assessed as accumulation at G0/G1-phase at 5 uM measured after 24 hrs by propidium iodide staining based flow cytometry (reference value: 54.26%). Format: functional.
Test [6] deals with PC-3. Briefly: Cell cycle arrest in human PC3 cells assessed as accumulation at G0/G1-phase at 2.5 uM measured after 24 hrs by propidium iodide staining based flow cytometry (reference value: 54.26%). Format: functional.
Test [7] deals with PC-3. Briefly: Cell cycle arrest in human PC3 cells assessed as increase in accumulation at G0/G1-phase measured after 24 hrs by propidium iodide staining based flow cytometry. Format: functional.
Test [8] concerns PC-3. Briefly: Cell cycle arrest in human PC3 cells assessed as accumulation at G2/M-phase at 10 uM measured after 24 hrs by propidium iodide staining based flow cytometry (reference value: 28.31%). Format: functional.
The subject of test [9] is PC-3. Briefly: Cell cycle arrest in human PC3 cells assessed as accumulation at subG1-phase at 2.5 uM measured after 24 hrs by propidium iodide staining based flow cytometry (reference value: 0.65%). Format: functional.
The test system of test [10] is PC-3. Briefly: Cell cycle arrest in human PC3 cells assessed as accumulation at G2/M-phase at 5 uM measured after 24 hrs by propidium iodide staining based flow cytometry (reference value: 28.31%). Format: functional.
The test system of test [11] is PC-3. Briefly: Antiproliferative activity against human PC3 cells measured after 96 hrs by MTT assay. Format: functional. The note with it: PC-3, 96 h.
In test [12] the test system is PC-3. Briefly: Cell cycle arrest in human PC3 cells assessed as accumulation at subG1-phase at 10 uM measured after 24 hrs by propidium iodide staining based flow cytometry (reference value: 0.65%). Format: functional.

Sequence of Peptidyl-prolyl cis-trans isomerase NIMA-interacting 1 (Q13526 whole entry): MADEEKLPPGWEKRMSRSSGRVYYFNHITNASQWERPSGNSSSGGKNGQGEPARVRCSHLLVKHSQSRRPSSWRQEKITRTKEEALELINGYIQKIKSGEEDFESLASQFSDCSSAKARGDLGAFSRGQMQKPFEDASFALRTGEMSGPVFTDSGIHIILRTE

For the molecule `Cc1cc(OC(=O)CCn2c(-c3ccc(C(=O)O)cc3)nc3ccccc32)cc(C)c1Cl`, the half-inhibitory concentration (IC50) in test [1] was 0.72 µM.

Consider `Cc1ccccc1NC(=O)CCn1c(CCC(=O)O)nc2ccccc21`, for which, in test [1], the IC50 stood at 9.81 µM.

Regarding `O=C(CCn1c(-c2ccc(C(=O)O)cc2)nc2ccccc21)Oc1ccc(Oc2ccccc2)cc1`, in test [1], the IC50 was 1.02 µM.

For the molecule `CC(C)(C)c1ccc(OCCCn2c(-c3ccc(C(=O)O)cc3)nc3ccccc32)cc1`, the IC50 in test [1] amounted to 1.89 µM.

As for `O=C(O)c1ccc(-c2nc3ccccc3n2CCC(=O)N(c2ccccc2)c2ccc3ccccc3c2)cc1`, in test [1], the IC50 was 1.53 µM.

`O=C(O)c1ccc(-c2nc3ccccc3n2CCCOc2cccc3ccccc23)cc1`: the half-maximal inhibitory concentration (IC50) in test [1] came out at 0.33 µM.

Consider `O=C(CCn1c(-c2ccc(C(=O)O)cc2)nc2ccccc21)Oc1cccc2ccccc12`, for which, in test [1], the IC50 was 1.87 µM.

Turning to `Cc1cccc(NC(=O)CCn2c(-c3ccc(C(=O)O)cc3)nc3ccccc32)c1`, the IC50 in test [1] is 1.1 µM.

Regarding `O=C(O)c1ccc(-c2nc3ccccc3n2CCCOc2ccc(Oc3ccccc3)cc2)cc1`, the IC50 in test [1] amounted to 2.2 µM.

As to `O=C(NS(=O)(=O)c1ccccc1)c1ccc(-c2nc3ccccc3n2CCCOc2cccc3ccccc23)cc1`, the Activity was 0.49% in the test on PC-3 [2]; 29.01% with PC-3 [3]; 64.24% in the test on PC-3 [4]; 62.46% with PC-3 [5]; 58.33% with PC-3 [6]; “Dose-dependent effect” with PC-3 [7]. Moreover, the Activity in the test on PC-3 [8] was found to be 27.2%; in the test on PC-3 [9], 0.52%; in the test with PC-3 [10] it was 27.86%; in the test on PC-3 [12], 0.37%. The molecule further returned a GI50 in the test with PC-3 [11] of 9 µM. Besides, the IC50 in test [1] stood at 1 µM.

`O=C(O)c1ccc(-c2nc3ccccc3n2CCC(=O)N(Cc2ccccc2)Cc2ccccc2)cc1`: in [1], the IC50 came to 5.4 µM.

For `O=C(CCn1c(-c2ccc(C(=O)O)cc2)nc2ccccc21)Nc1cc(Cl)cc(Cl)c1`, the IC50 in [1] is 2.89 µM.

Consider `COc1cccc(NC(=O)CCn2c(-c3ccc(C(=O)O)cc3)nc3ccccc32)c1`, for which the IC50 in test [1] was 18.7 µM.

On to `O=C(CCn1c(-c2ccc(C(=O)O)cc2)nc2ccccc21)Nc1cccc([N+](=O)[O-])c1`, for which, in [1], the IC50 amounted to 13.6 µM.

With `Cc1ccccc1NC(=O)CCn1c(-c2ccc(C(=O)O)cc2)nc2ccccc21`, the IC50 in [1] was 7.27 µM.

For `O=C(CCn1c(-c2ccc(C(=O)O)cc2)nc2ccccc21)Nc1cccc(C(F)(F)F)c1`, in test [1], the IC50 was 11.3 µM.

On to `Cc1cccc(NC(=O)CCn2c(CCC(=O)O)nc3ccccc32)c1`, for which, in test [1], the IC50 was 7.56 µM.

Take `COc1cc(NC(=O)CCn2c(-c3ccc(C(=O)O)cc3)nc3ccccc32)cc(OC)c1`: in test [1], the 50% inhibitory concentration (IC50) came out at 3.57 µM.

Regarding `O=C(NS(=O)(=O)C(F)(F)F)c1ccc(-c2nc3ccccc3n2CCCOc2cccc3ccccc23)cc1`, the IC50 in [1] was 2.26 µM.

Take `CS(=O)(=O)NC(=O)c1ccc(-c2nc3ccccc3n2CCCOc2cccc3ccccc23)cc1`: in test [1], the IC50 came out at 7.83 µM.

For the molecule `O=C(O)CCc1nc2ccccc2n1CCC(=O)Nc1ccccc1`, the IC50 in test [1] came to 19.7 µM.

As to `CC(C)(C)c1ccc(OC(=O)CCn2c(-c3ccc(C(=O)O)cc3)nc3ccccc32)cc1`, the IC50 in test [1] is 13.9 µM.

As for `Cc1cc(OCCCn2c(-c3ccc(C(=O)O)cc3)nc3ccccc32)cc(C)c1Cl`, the IC50 in [1] stood at 0.47 µM.
